According to the NIST ThermoML archive (doi:10.1016/j.tca.2006.01.020):
± gives the expanded uncertainty stated by the source.

Details: 101.33 kPa, Crystal, Small (less than 1 g) adiabatic calorimetry

[Ba+2].[Ce+4].[O-2].[O-2].[O-2] [barium cerium(IV) oxide]
Details	molar entropy [J/K/mol]
10 K	0.084 ± 0.025
20 K	1.242 ± 0.042
30 K	4.425 ± 0.15
40 K	9.136 ± 0.21
50 K	14.71 ± 0.29
60 K	20.8 ± 0.38
70 K	27.13 ± 0.48
80 K	33.51 ± 0.58
90 K	39.88 ± 0.71
100 K	46.2 ± 0.8
120 K	58.56 ± 0.99
140 K	70.43 ± 1.2
160 K	81.77 ± 1.4
180 K	92.55 ± 1.5
200 K	102.8 ± 1.7
220 K	112.5 ± 1.8
240 K	121.7 ± 2
260 K	130.4 ± 2.1
280 K	138.6 ± 2.2
298.15 K	145.8 ± 2.3
300 K	146.6 ± 2.4

[Ba+2].[O-2].[O-2].[O-2].[Zr+4] [barium zirconium(IV) oxide]
Details	molar entropy [J/K/mol]
10 K	0.053 ± 0.024
20 K	0.666 ± 0.033
30 K	2.753 ± 0.13
40 K	6.284 ± 0.17
50 K	10.7 ± 0.23
60 K	15.67 ± 0.3
70 K	20.91 ± 0.38
80 K	26.27 ± 0.46
90 K	31.67 ± 0.59
100 K	37.05 ± 0.67
120 K	47.64 ± 0.83
140 K	57.88 ± 0.98
160 K	67.72 ± 1.1
180 K	77.16 ± 1.3
200 K	86.23 ± 1.4
220 K	94.92 ± 1.6
240 K	103.2 ± 1.7
260 K	111.2 ± 1.8
280 K	118.8 ± 1.9
298.15 K	125.5 ± 2
300 K	126.2 ± 2
